The values that follow are results of earlier work, collected in US20170218035A1, “COMPOSITIONS AND METHODS FOR TREATMENT WITH HEMOPEXIN” (Bayer HealthCare LLC, priority 2014, published 2017).

The Kd is the free concentration of one partner at which half of the binding sites on the other are occupied at equilibrium, for simple one-to-one binding.

For the series, the target named is T1, Hemopexin (plasma based glycoprotein) (Homo sapiens, UniProt P02790).
T1 sequence (P02790 24-462): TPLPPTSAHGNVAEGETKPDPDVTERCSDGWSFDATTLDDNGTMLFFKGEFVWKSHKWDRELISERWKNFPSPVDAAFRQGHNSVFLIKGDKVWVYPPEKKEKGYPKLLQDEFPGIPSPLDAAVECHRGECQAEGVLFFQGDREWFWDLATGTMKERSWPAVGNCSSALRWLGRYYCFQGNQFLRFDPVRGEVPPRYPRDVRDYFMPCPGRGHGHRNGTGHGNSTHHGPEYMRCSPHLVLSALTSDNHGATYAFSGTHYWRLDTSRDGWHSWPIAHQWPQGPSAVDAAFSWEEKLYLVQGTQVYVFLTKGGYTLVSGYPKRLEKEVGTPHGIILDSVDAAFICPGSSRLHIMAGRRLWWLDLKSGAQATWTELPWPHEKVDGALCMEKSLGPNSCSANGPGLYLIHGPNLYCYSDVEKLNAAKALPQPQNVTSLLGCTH
The settings on record: highest known binding affinity for heme; reported value.

`C=CC1=C(C)c2cc3[nH]c(cc4nc(cc5[nH]c(cc1n2)c(C)c5CCC(=O)O)C(CCC(=O)O)=C4C)c(C)c3C=C.[Fe]` [heme]: the Kd is less than 1 pM.
